The text below walks through data of patent US20190365673A1, “Immunomodulatory Compounds” (Lankenau Institute for Medical Research, priority 2016, published 2019).

Series [1] deals with WM3734 melanoma cells. Briefly: Cell viability assay (EZQuant), WM3734. The format is cell-based. The settings on record: Homo sapiens; AP alone, 72 h, WM3734, BRAF V600E.
Description: (§2) Cell proliferation assays were conducted in 96-well plates at 25-30% starting confluence to determine the effect of exposure to increasing concentrations of PLX4720 or AP with or without 1 mM DFMO for 72 hours. Cell viability was assessed using the EZQuant™ Cell Quantifying Kit (Alstem) in which WST-8 is reduced by the metabolic activity of live cells to formazan dye. […] The 72 hour IC50 values for AP were calculated using non-linear regression (sigmoidal dose response) of the plot of percentage inhibition versus the log of inhibitor concentration in GraphPad Prism (v5; GraphPad Software, Inc., La Jolla, Calif.).
Series [2] relates to BRAF^V600E melanoma cells. Briefly: Cell viability, panel of BRAF V600E human melanoma cell lines. The settings on record: summary of Table 1, BRAF V600E lines, read-out: IC50 (sensitivity to AP). The format is cell-based. The source says: (§1) A panel of human melanoma cell lines with different BRAF mutational status were screened for their sensitivity to the BRAF inhibitor PLX4720. […] The IC50 value is defined as the concentration of the compound (PLX4720) required to inhibit 50% cell viability compared to an untreated control. This approach allowed for the ranking of the relative sensitivity of each cell line to the PLX4720 BRAF inhibitor. Thus, the sensitivity of these BRAF^V600E melanoma cells to BRAF inhibition with PLX4720 reflected their functional dependence on mutant BRAF signaling to sustain their proliferation and viability. Likewise, it was tested whether BRAF^V600E cells were more sensitive compared to BRAF^WT melanoma cells to increasing concentrations of the cytotoxic polyamine transport ligand, AP.

In series [3] the test system is B16F10-pBABE cells. Briefly: Cell viability assay, B16F10-pBABE. As to conditions: Mus musculus, read-out: IC50 (cytotoxicity). The method, then: Cell proliferation assays were conducted in 96-well plates at 25-30% starting confluence to determine the effect of exposure to increasing concentrations of PLX4720 or AP with or without 1 mM DFMO for 72 hours. Cell viability was assessed using the EZQuant™ Cell Quantifying Kit (Alstem) in which WST-8 is reduced by the metabolic activity of live cells to formazan dye. For spheroids treated with PLX4720 and/or AP, viability of the spheroid cells was estimated by quantification of the ATP present using a CellTiter-Glo Luminescent Cell Viability Assay (Promega Co., Madison, Wis.). The 72 hour IC50 values for AP were calculated using non-linear regression (sigmoidal dose response) of the plot of percentage inhibition versus the log of inhibitor concentration in GraphPad Prism (v5; GraphPad Software, Inc., La Jolla, Calif.).

Series [4] deals with CXCR4^+ RAW247.6 macrophage cells. The experiment in a line: In vitro chemotaxis assay, SDF-1 stimulated migration. Type of series: cell-based. The method, then:
The ability to inhibit stromal cell-derived factor 1 (SDF-1) stimulated migration of macrophage was also tested in an in vitro chemotaxis assay. Specifically, CXCR4^+ RAW247.6 macrophage cells were treated with SDF-1α alone or with AMD3100, a specific CXCR4 antagonist which inhibits cell migration and phosphorylation of ERK1/2 by SDF-1, or AP (Formula (II)).

Series [5] deals with 1205Lu melanoma spheroids. The experiment in a line: 3D spheroid culture viability (CellTiter-Glo). The format is cell-based, human. The settings on record: FIG. 10, 25 μM each drug, 48 h, 3D spheroids on NCPs. The method, then:
BRAF^V600E mutant 1205Lu melanoma cells were seeded at 1×10^4 cells in each well of the […] NCPs. When spheroids were formed on day 3, the 3D cultures of spheroids were treated with PLX4720 (25 μM) and/or AP (25 μM). 2D monolayer cultures of 1205Lu melanoma cells were also treated with PLX4720 (25 μM) and/or AP (25 μM). After drug treatment for 48 hours, the viability of spheroids and monolayer cultures was assayed using the CellTiter-Glo Luminescent Cell Viability Assay. The percent cell survival in each treatment group was calculated relative to cells treated with medium only under the same conditions. As controls, the growth of cells without drug treatment under each condition was normalized as 100% separately. The means are presented±SD.
The inorganic nanoscale scaffolding NanoCulture plates (NCP) were purchased from SCIVAX. The base of each NCP is constructed with a transparent cyclo-olefin resinous sheet with a nanoscale indented pattern. To form spheroids, 1205Lu human melanoma cells were seeded in 96-well NCPs at 1×10^4 cells/well in MCDB153 (Sigma)/Leibovitz's L-15 (Cellgro) medium (4:1 ratio) supplemented with 2% heat-inactivated fetal calf serum and 2 mM CaCl2 and incubated in a conventional cell incubator at 37° C. in an atmosphere of 5% CO2 and normal O2 levels. […]
A general note: Cellular ATP, detected with luciferase, serves as a proxy for viable cell number.

In series [6] the test system is 1205Lu melanoma cells. Briefly: Cell viability assay (EZQuant), 1205Lu. The format is cell-based. As to conditions: Homo sapiens, AP alone, 72 h, BRAF V600E.
Description: as §2
In series [7] the test system is BRAF^WT melanoma cells. The experiment in a line: Cell viability, panel of BRAF WT human melanoma cell lines. Type of series: cell-based. As to conditions: summary of Table 1, BRAF WT lines, read-out: IC50 (sensitivity to AP).
Text: as §1

Structures are written as SMILES.

As to `CNCNCNCc1ccc(CNCNCNC)c2ccccc12` [AP], the 50% inhibitory concentration (IC50) – broadly, the concentration needed to halve the response being measured – in series [1] was 2.2 µM; in series [2] it was less than 2500 nM; in series [3], 36400 nM; in series [6], 0.7 µM; in series [7], more than 4000 nM. In series [4] (FIG. 13), the “SDF-1-stimulated migration of CXCR4+ macrophages” value is “inhibits”. For the same compound, in series [4] (in the chemotaxis assay), the “viability of the macrophages” value was “without affecting the viability”. Further, the “cell viability of spheroid cultures” value in series [5] was “similarly sensitive”.
